According to ChEMBL document CHEMBL4000174, “Synthesis and antitumor activity of novel substituted uracil-1'(N)-acetic acid ester derivatives of 20(S)-camptothecins” (Eur J Med Chem, 2017):
Activity calls are given as the source filed them. The rule behind the calls is not given here.

Columns and labels:
H22 [1] = experiment: Antitumor activity against mouse H22 cells implanted in Kunming mouse assessed as tumor growth inhibition at 100 mg/kg, ip administered twice relative to control; conditions: read-out: TGI
Mus musculus [2] = experiment: Toxicity in Kunming mouse implanted with mouse H22 cells assessed as body weight at 24 mg/kg, ip administered once in every three days totally for 3 times (reference value: 32.5 g); format: organism-based; conditions: in vivo
H22 [3] = experiment: Antitumor activity against mouse H22 cells implanted in Kunming mouse assessed as tumor growth inhibition at 24 mg/kg, ip administered once in every 3 days totally for 3 times relative to control; format: functional; conditions: 72 h, read-out: TGI
A549 [4] = experiment: Antiproliferative activity against human A549 cells after 96 hrs by MTT assay; format: functional, cell-based; conditions: A549, 96 h
Bel-7402 [5] = experiment: Antiproliferative activity against human Bel7402 cells after 96 hrs by MTT assay; format: functional, cell-based; conditions: Bel-7402, 96 h
BGC-823 [6] = experiment: Antiproliferative activity against human BGC823 cells after 96 hrs by MTT assay; format: functional, cell-based; conditions: BGC-823, 96 h
HCT-8 = experiment: Antiproliferative activity against human HCT8 cells after 96 hrs by MTT assay; format: functional, cell-based; conditions: HCT-8, 96 h
A2780 = experiment: Antiproliferative activity against human A2780 cells after 96 hrs by MTT assay; format: functional, cell-based; conditions: A2780, 96 h
Mus musculus [7] = experiment: Toxicity in BALB/c nude mouse xenografted with human BGC823 cells assessed as body weight at 50 mg/kg, ip administered once in a week for two weeks starting from 6 days post tumor transplantation and measured every 3 days during compound dosing for 15 days (reference value: 23.6 g); format: organism-based; conditions: in vivo, 360 h
BGC-823 [8] = experiment: Antitumor activity against human BGC823 cells xenografted in BALB/c nude mouse assessed as tumor growth inhibition at 50 mg/kg, ip administered once in a week for two weeks starting from 6 days post tumor transplantation measured 27 to 30 days post tumor transplantation relative to control; format: functional; conditions: BGC-823, ip, read-out: TGI
Mus musculus [9] = experiment: Toxicity in BALB/c nude mouse xenografted with human BGC823 cells assessed as mouse survival at 50 mg/kg, ip administered once in a week for two weeks starting from 6 days post tumor transplantation; format: organism-based; conditions: in vivo, 144 h
Mus musculus [10] = experiment: Toxicity in Kunming mouse implanted with mouse H22 cells assessed as body weight at 40 mg/kg, ip administered on day 1 and day 5 (reference value: 32.5 g); format: organism-based; conditions: in vivo
H22 [11] = experiment: Antitumor activity against mouse H22 cells implanted in Kunming mouse assessed as tumor growth inhibition at 40 mg/kg, ip administered on day 1 and day 5 relative to control relative to control; format: functional; conditions: read-out: TGI
H22 [12] = experiment: Antitumor activity against mouse H22 cells implanted in Kunming mouse assessed as tumor growth inhibition at 100 mg/kg, ip administered once relative to control; format: functional; conditions: read-out: TGI
H22 [13] = experiment: Antitumor activity against mouse H22 cells implanted in Kunming mouse assessed as tumor growth inhibition at 60 mg/kg, ip administered twice relative to control; format: functional; conditions: read-out: TGI
Mus musculus [14] = experiment: Toxicity in Kunming mouse implanted with mouse H22 cell assessed as survival at 40 mg/kg, ip administered on day 1 and day 5; format: organism-based; conditions: in vivo
Mus musculus [15] = experiment: Toxicity in Kunming mouse implanted with mouse H22 cells assessed as body weight at 100 mg/kg, ip administered once (reference value: 31.1 g); format: organism-based; conditions: in vivo
Mus musculus [16] = experiment: Toxicity in Kunming mouse implanted with mouse H22 cells assessed as body weight at 60 mg/kg, ip administered twice (reference value: 31.1 g); format: organism-based; conditions: in vivo
A549 [17] = experiment: Cell cycle arrest in human A549 cells assessed as accumulation at G0/G1 phase at 8 nM after 24 hrs by propidium iodide staining based flow cytometry (reference value: 58.84%); format: functional
A549 [18] = experiment: Cell cycle arrest in human A549 cells assessed as accumulation at S phase at 8 nM after 24 hrs by propidium iodide staining based flow cytometry (reference value: 32.80%); format: functional
A549 [19] = experiment: Cell cycle arrest in human A549 cells assessed as accumulation at G2/M phase at 8 nM after 24 hrs by propidium iodide staining based flow cytometry (reference value: 8.36%); format: functional
A549 [20] = experiment: Cell cycle arrest in human A549 cells assessed as accumulation at G0/G1 phase at 25 nM after 24 hrs by propidium iodide staining based flow cytometry (reference value: 58.84%); format: functional
A549 [21] = experiment: Cell cycle arrest in human A549 cells assessed as accumulation at S phase at 25 nM after 24 hrs by propidium iodide staining based flow cytometry (reference value: 32.80%); format: functional
A549 [22] = experiment: Cell cycle arrest in human A549 cells assessed as accumulation at G2/M phase at 25 nM after 24 hrs by propidium iodide staining based flow cytometry (reference value: 8.36%); format: functional
A549 [23] = experiment: Cell cycle arrest in human A549 cells assessed as accumulation at G0/G1 phase at 75 nM after 24 hrs by propidium iodide staining based flow cytometry (reference value: 58.84%); format: functional
A549 [24] = experiment: Cell cycle arrest in human A549 cells assessed as accumulation at S phase at 75 nM after 24 hrs by propidium iodide staining based flow cytometry (reference value: 32.80%); format: functional
A549 [25] = experiment: Cell cycle arrest in human A549 cells assessed as accumulation at G2/M phase at 75 nM after 24 hrs by propidium iodide staining based flow cytometry (reference value: 8.36%); format: functional
Mus musculus [26] = experiment: Toxicity in BALB/c nude mouse xenografted with human Bel7402 cells assessed as body weight at 5 mg/kg, ip administered once in a week for two weeks starting from 6 days post tumor transplantation measured every 3 days for 21 days (reference value: 14.5 g); format: organism-based; conditions: in vivo, 504 h
Bel-7402 [27] = experiment: Antitumor activity against human Bel7402 cells xenografted in BALB/c nude mouse assessed as tumor growth inhibition at 5 mg/kg, ip administered once in a week for two weeks starting from 6 days post tumor transplantation measured 27 to 30 days post tumor transplantation relative to control; format: functional; conditions: Bel-7402, ip, read-out: TGI
Escherichia coli = experiment: Inhibition of Escherichia coli topoisomerase 1-mediated relaxation of supercoiled Pcmv-6 plasmid DNA at 1 to 50 uM after 30 mins by ethidium bromide staining based agarose gel electrophoretic analysis
Bel-7402 [28] = experiment: Antitumor activity against human Bel7402 cells xenografted in BALB/c nude mouse assessed as tumor volume at 5 mg/kg, ip administered once in a week for two weeks starting from 6 days post tumor transplantation measured 27 to 30 days post tumor transplantation relative to control; format: functional
Mus musculus [29] = experiment: Antitumor activity in BALB/c nude mouse xenografted with human Bel7402 cells assessed as tumor volume at 5 mg/kg, ip administered once in a week for two weeks starting from 6 days post tumor transplantation measured every 3 days for 21 days (reference value: […]); conditions: in vivo, 504 h

| IC50 (A549 [4]) [nM] | IC50 (Bel-7402 [5]) [nM] | IC50 (BGC-823 [6]) [nM] | IC50 (HCT-8) [nM] | IC50 (A2780) [nM] | SMILES | also measured |
| --- | --- | --- | --- | --- | --- | --- |
| 88 | 12 | 31 | < 2 | 182 | CCc1c2c(nc3ccccc13)-c1cc3c(c(=O)n1C2)COC(=O)[C@@]3(CC)OC(=O)Cn1cc(Br)c(=O)[nH]c1=O | – |
| 126 | 86 | 64 | 109 | 68 | CC[C@@]1(OC(=O)Cn2cc(F)c(=O)[nH]c2=O)C(=O)OCc2c1cc1n(c2=O)Cc2cc3ccccc3nc2-1 | – |
| 75 | 16 | 17 | 13 | 221 | CC[C@@]1(OC(=O)Cn2cc(Cl)c(=O)[nH]c2=O)C(=O)OCc2c1cc1n(c2=O)Cc2cc3c([N+](=O)[O-])cccc3nc2-1 | – |
| 65 | 14 | 17 | 2 | 86 | CCc1c2c(nc3ccccc13)-c1cc3c(c(=O)n1C2)COC(=O)[C@@]3(CC)OC(=O)Cn1ccc(=O)[nH]c1=O | – |
| 54 | 17 | 16 | 13 | 110 | CC[C@@]1(OC(=O)Cn2cc(Cl)c(=O)[nH]c2=O)C(=O)OCc2c1cc1n(c2=O)Cc2cc3ccccc3nc2-1 | – |
| 90 | 13 | 15 | 13 | 183 | CC[C@@]1(OC(=O)Cn2cc(Br)c(=O)[nH]c2=O)C(=O)OCc2c1cc1n(c2=O)Cc2cc3c([N+](=O)[O-])cccc3nc2-1 | – |
| 6400 | 3280 | 7890 | 957 | 750 | CC[C@@]1(OC(=O)Cn2cc(I)c(=O)[nH]c2=O)C(=O)OCc2c1cc1n(c2=O)Cc2cc3ccccc3nc2-1 | – |
| 7 | 100 | 78 | 22 | 78 | CC[C@@]1(O)C(=O)OCc2c1cc1n(c2=O)Cc2cc3c(CN(C)C)c(O)ccc3nc2-1 [TOPOTECAN] | Activity (A549 [17]): 53.22%; Activity (A549 [18]): 35.07%; Activity (A549 [19]): 11.71%; Activity (A549 [20]): 55.73%; Activity (A549 [21]): 31.44%; Activity (A549 [22]): 12.83%; Activity (A549 [23]): 43.81%; Activity (A549 [24]): 23.36%; Activity (A549 [25]): 32.83%; Activity (Mus musculus [26]): Non-Toxic; inhibition in vivo at 5 mg/kg (Bel-7402 [27]): 45.5%; inhibition (Escherichia coli): Active; T/C (Bel-7402 [28]): 58.8%; tumor volume (Mus musculus [29]): 302 mm³ |

Second part, the compound before the results:

| SMILES | IC50 (A549 [4]) [nM] | IC50 (Bel-7402 [5]) [nM] | IC50 (BGC-823 [6]) [nM] | IC50 (HCT-8) [nM] | IC50 (A2780) [nM] | also measured |
| --- | --- | --- | --- | --- | --- | --- |
| O=P1(N(CCCl)CCCl)NCCCO1 (stereo not drawn) [CYCLOPHOSPHAMIDE ANHYDROUS] | – | – | – | – | – | inhibition in vivo at 100 mg/kg (H22 [1]): 93.7% |
| CC(=O)O[C@H]1C(=O)[C@@]2(C)[C@H]([C@H](OC(=O)c3ccccc3)[C@]3(O)C[C@H](OC(=O)[C@H](O)[C@@H](NC(=O)c4ccccc4)c4ccccc4)C(C)=C1C3(C)C)[C@]1(OC(C)=O)CO[C@@H]1C[C@@H]2O [PACLITAXEL] | – | – | – | – | – | Activity (Mus musculus [2]): 18.9 g; inhibition in vivo at 24 mg/kg (H22 [3]): 73.8% |
| CCc1c2c(nc3ccccc13)-c1cc3c(c(=O)n1C2)COC(=O)[C@@]3(CC)OC(=O)Cn1cc(I)c(=O)[nH]c1=O | 710 | 4510 | 2570 | 586 | 669 | – |
| CC[C@@]1(O)C(=O)OCc2c1cc1n(c2=O)Cc2cc3ccccc3nc2-1 [CAMPTOTHECIN] | 6 | 14 | 57 | 24 | 29 | – |
| CCc1c2c(nc3ccc(OC(=O)N4CCC(N5CCCCC5)CC4)cc13)-c1cc3c(c(=O)n1C2)COC(=O)[C@]3(O)CC [IRINOTECAN] | – | – | – | – | – | Activity (Mus musculus [7]): 20.5 g; inhibition in vivo at 50 mg/kg (BGC-823 [8]): 94.1%; Activity (Mus musculus [9]): Non-Toxic |
| CCc1c2c(nc3ccccc13)-c1cc3c(c(=O)n1C2)COC(=O)[C@@]3(CC)OC(=O)Cn1cc(Cl)c(=O)[nH]c1=O | 38 | 12 | 17 | 2 | 670 | Activity (Mus musculus [10]): 27 g; inhibition in vivo at 40 mg/kg (H22 [11]): 46.2%; inhibition in vivo at 100 mg/kg (H22 [12]): 58.7%; inhibition in vivo at 60 mg/kg (H22 [13]): 76.6%; Activity (Mus musculus [14]): Non-Toxic; Activity (Mus musculus [15]): 25.2 g; Activity (Mus musculus [16]): 26.2 g |
| CC[C@@]1(OC(=O)Cn2cc(Br)c(=O)[nH]c2=O)C(=O)OCc2c1cc1n(c2=O)Cc2cc3ccccc3nc2-1 | 48 | 12 | 16 | 6 | 160 | Activity (Mus musculus [10]): 32.1 g; inhibition in vivo at 40 mg/kg (H22 [11]): 6.39%; Activity (Mus musculus [14]): Non-Toxic |
| CC[C@@]1(OC(=O)Cn2ccc(=O)[nH]c2=O)C(=O)OCc2c1cc1n(c2=O)Cc2cc3ccccc3nc2-1 | 46 | 18 | 17 | 14 | 160 | – |
| CC[C@@]1(OC(=O)Cn2cc(F)c(=O)[nH]c2=O)C(=O)OCc2c1cc1n(c2=O)Cc2cc3c([N+](=O)[O-])cccc3nc2-1 | 81 | 16 | 17 | 13 | 115 | – |
| CC[C@@]1(OC(=O)Cn2cc(I)c(=O)[nH]c2=O)C(=O)OCc2c1cc1n(c2=O)Cc2cc3c([N+](=O)[O-])cccc3nc2-1 | 117 | 13 | 16 | 14 | 200 | – |
| CC[C@@]1(OC(=O)Cn2ccc(=O)[nH]c2=O)C(=O)OCc2c1cc1n(c2=O)Cc2cc3c([N+](=O)[O-])cccc3nc2-1 | 51 | 18 | 17 | 14 | 73 | Activity (Mus musculus [10]): 32 g; inhibition in vivo at 40 mg/kg (H22 [11]): 11%; Activity (Mus musculus [14]): Non-Toxic |
